Assay results reported in BigSolDB 2.1.

N#CCC(N)=O
solubility (mole fraction)
Settings | 283.15 K | 288.15 K | 293.15 K | 298.15 K | 303.15 K | 308.15 K | 313.15 K | 318.15 K | 323.15 K
in ethanol | 0.00653 | 0.00898 | 0.0107 | 0.0129 | 0.0157 | 0.0188 | 0.0233 | 0.0281 | 0.0362
in isopropanol | 0.00409 | 0.00548 | 0.00648 | 0.00816 | 0.0103 | 0.0135 | 0.0168 | 0.0197 | 0.024
in methanol | 0.0186 | 0.0227 | 0.0273 | 0.0332 | 0.0401 | 0.048 | 0.0565 | 0.0684 | 0.08
in n-propanol | 0.00345 | 0.00421 | 0.00565 | 0.0072 | 0.0091 | 0.0115 | 0.0146 | 0.0181 | 0.0229
in water | 0.0171 | 0.0221 | 0.0304 | 0.039 | 0.0505 | 0.0651 | 0.086 | 0.11 | 0.131
